Source: patent US20240174723A1, “STAPLED ANTIMICROBIAL PEPTIDES (STAMPS) AND USES THEREOF” (Lytica Therapeutics, Inc., priority 2021, published 2024)
In brackets after ≈: the same amount, converted by molar mass. Positions of bridges follow the written chain, without caps; N, C: chain ends. Non-standard residues stand in square brackets, D forms with d. Residues, ends and D or L forms follow the SMILES beside them. S5 = C=CCCC[C@](C)(N)C(=O)O; PEG1 = NCCOCCC(=O)O

Experiments:
[1] = tested on: E. coli; type: cell-based, Escherichia coli
In short: (§1)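 Colonies are grown overnight at 37 °C, diluted and regrown 3-4 h. Bacteria in MHB or MHB II are then added to serial peptide dilutions to reach 5×10^5 CFU/ml. Plates are incubated 20-24 h at 37 °C and scored for the lowest concentration without visible growth.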

[2] = tested on: A. baumannii; type: cell-based, Acinetobacter baumannii
In short: as §1

[3] = tested on: S. aureus; type: cell-based, Staphylococcus aureus
In short: as §1

[4] = tested on: Human Renal Proximal Tubule Epithelial Cells (RPTEC); experiment: in vitro; type: cell-based; conditions: 90 min
In short: (§2)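 LDH release (absorbance at 490 nm) measured in the media of cells treated with serially diluted StAMPs or vehicle at 37 °C: 90 min for renal RPTEC, 48 h for liver HepG2. Cells were seeded overnight beforehand and media refreshed before dosing.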

[5] = tested on: Human Liver Cells (HepG2); experiment: in vitro; type: cell-based; conditions: 48 hours
In short: (§3)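 Cytotoxicity read by CellTiter-Glo luminescence after 48 h at 37 °C exposure to serially diluted StAMPs or vehicle. HepG2 cells were grown in EMEM plus 10% FBS and given 4 h to attach before dosing; peptides came from a 5 mg/mL aqueous stock.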

[6] = tested on: P. aeruginosa; type: cell-based, Pseudomonas aeruginosa
In short: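 MIC taken as lowest peptide concentration with no visible growth after 20-24 h at 37 °C. Peptide serial dilutions from water stocks met P. aeruginosa inoculum (5×10^5 CFU/ml final) in MHB or MHB II, per a CLSI-adapted microbroth protocol.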

[7] = tested on: K. pneumoniae; type: cell-based, Klebsiella pneumoniae
In short: as §1

[8] = in vitro; type: cell-based; conditions: human
In short: as §2

[9] = in vitro; type: cell-based; conditions: human, Inhibitory Concentration at 50% Cytotoxicity (IC50) Human Liver Cells (HepG2)
In short: as §3

Structure (SMILES)	Minimum Inhibitory Concentration (MIC) E. coli [1] [µg/mL]	Minimum Inhibitory Concentration (MIC) A. baumannii [2] [µg/mL]	Minimum Inhibitory Concentration (MIC) S. aureus [3] [µg/mL]	Inhibitory Concentration at 50% Cytotoxicity (IC50) Human Renal Proximal Tubule Epithelial Cells (RPTEC) [4] [µg/mL]	Inhibitory Concentration at 50% Cytotoxicity (IC50) Human Liver Cells (HepG2) [5] [µg/mL]	Minimum Inhibitory Concentration (MIC) P. aeruginosa [6] [µg/mL]	Minimum Inhibitory Concentration (MIC) K. pneumoniae [7] [µg/mL]	IC50 at 90 min [8] [µg/mL]	IC50 at 48 hours [9] [µg/mL]
CC(C)[C@@H]1NC(=O)[C@@](C)(NC(=O)[C@H](C)NC(=O)[C@H](CCCCN)NC(=O)CNC(=O)[C@H](Cc2ccccc2)NC(=O)[C@H](CCCCN)NC(=O)[C@H](CCCCN)NC(=O)[C@H](CCCCN)NC(=O)[C@H](CO)NC(=O)[C@H](Cc2c[nH]cn2)NC(=O)[C@]2(C)CCCC=CCCC[C@](C)(NC(=O)CN)C(=O)NCC(=O)N[C@@H](CCCCN)C(=O)N[C@@H](Cc3ccccc3)C(=O)N2)CCCC=CCCC[C@@](C)(C(=O)N[C@@H](C)C(=O)N[C@@H](CCCCN)C(=O)N[C@@H](CCCCN)C(N)=O)NC(=O)[C@H](CCC(=O)O)NC(=O)[C@H](Cc2c[nH]c3ccccc23)NC1=O (single isomer, unassigned) [compound 65]	4	2	32	110	150				
CC(C)[C@@H]1NC(=O)[C@@](C)(NC(=O)[C@H](C)NC(=O)[C@H](CCCCN)NC(=O)CNC(=O)[C@H](Cc2ccccc2)NC(=O)[C@H](CCCCN)NC(=O)[C@H](CCCCN)NC(=O)[C@H](CCCCN)NC(=O)[C@H](CCCCN)NC(=O)[C@H](CCN)NC(=O)[C@]2(C)CCCC=CCCC[C@](C)(NC(=O)CN)C(=O)NCC(=O)N[C@@H](CCCCN)C(=O)N[C@@H](Cc3ccccc3)C(=O)N2)CCCC=CCCC[C@@](C)(C(=O)N[C@@H](C)C(=O)N[C@@H](CCCCN)C(=O)N[C@@H](CCCCN)C(N)=O)NC(=O)[C@H](CCC(=O)O)NC(=O)CNC1=O (single isomer, unassigned) [compound 79]	1	0.5	>64		113	1	8		
CC(C)[C@@H]1NC(=O)[C@H](C(C)C)NC(=O)[C@@](C)(NC(=O)[C@H](C)NC(=O)[C@H](CCCCN)NC(=O)CNC(=O)[C@H](Cc2ccccc2)NC(=O)[C@H](CCCCN)NC(=O)[C@H](CCCCN)NC(=O)[C@H](CCCCN)NC(=O)[C@H](CO)NC(=O)[C@H](Cc2c[nH]cn2)NC(=O)[C@]2(C)CCCC=CCCC[C@](C)(NC(=O)CN)C(=O)NCC(=O)N[C@@H](CCCCN)C(=O)N[C@@H](Cc3ccccc3)C(=O)N2)CCCC=CCCC[C@@](C)(C(=O)N[C@@H](C)C(=O)N[C@@H](CCCCN)C(=O)N[C@@H](CCCCN)C(N)=O)NC(=O)[C@H](CCC(=O)O)NC1=O [compound 11] (H-G[S5]GKF[S5]HSKKKFGKA[S5]VVE[S5]AKK-NH2; staple 2-6, 16-20)	2	2	>64			6	7	203 (≈ 78.9 µM)	227 (≈ 88.2 µM)
CC(C)[C@@H]1NC(=O)[C@@](C)(NC(=O)[C@H](C)NC(=O)[C@H](CCCCN)NC(=O)CNC(=O)[C@H](Cc2ccccc2)NC(=O)[C@H](CCCCN)NC(=O)[C@H](CCCCN)NC(=O)[C@H](CCCCN)NC(=O)[C@H](CO)NC(=O)[C@H](Cc2c[nH]cn2)NC(=O)[C@]2(C)CCCC=CCCC[C@](C)(NC(=O)CN)C(=O)NCC(=O)N[C@@H](CCCCN)C(=O)N[C@@H](Cc3ccccc3)C(=O)N2)CCCC=CCCC[C@@](C)(C(=O)N[C@@H](C)C(=O)N[C@@H](CCCCN)C(=O)N[C@@H](CCCCN)C(N)=O)NC(=O)[C@H](CC(=O)O)NC(=O)CNC1=O [compound 16] (H-G[S5]GKF[S5]HSKKKFGKA[S5]VGD[S5]AKK-NH2; staple 2-6, 16-20)	12	4	>64			16	>64	> 200	> 200
CC(C)[C@@H]1NC(=O)[C@@](C)(NC(=O)[C@H](C)NC(=O)[C@H](CCCCN)NC(=O)CNC(=O)[C@H](Cc2ccccc2)NC(=O)[C@H](CCCCN)NC(=O)[C@H](CCCCN)NC(=O)[C@H](CCCCN)NC(=O)[C@H](CCCCN)NC(=O)[C@H](CCCCN)NC(=O)[C@]2(C)CCCC=CCCC[C@](C)(NC(=O)CN)C(=O)NCC(=O)N[C@@H](CCCCN)C(=O)N[C@@H](Cc3ccccc3)C(=O)N2)CCCC=CCCC[C@@](C)(C(=O)N[C@@H](C)C(=O)N[C@@H](CCCCN)C(=O)N[C@@H](CCCCN)C(=O)NCCOCCC(N)=O)NC(=O)[C@H](CCC(=O)O)NC(=O)CNC1=O [compound 71] (H-G[S5]GKF[S5]KKKKKFGKA[S5]VGE[S5]AKK[PEG1]-NH2; staple 2-6, 16-20)	2	2	>64			4	4	200 (≈ 74.6 µM)	247 (≈ 92.2 µM)
CC(C)[C@@H]1NC(=O)[C@@](C)(NC(=O)[C@H](C)NC(=O)[C@H](CCCCN)NC(=O)CNC(=O)[C@H](Cc2ccccc2)NC(=O)[C@H](CCCCN)NC(=O)[C@H](CCCCN)NC(=O)[C@H](CCCCN)NC(=O)[C@H](CC(N)=O)NC(=O)[C@H](Cc2c[nH]cn2)NC(=O)[C@]2(C)CCCC=CCCC[C@](C)(NC(=O)CN)C(=O)NCC(=O)N[C@@H](CCCCN)C(=O)N[C@@H](Cc3ccccc3)C(=O)N2)CCCC=CCCC[C@@](C)(C(=O)N[C@@H](C)C(=O)N[C@@H](CCCCN)C(=O)N[C@@H](CCCCN)C(N)=O)NC(=O)[C@H](CCC(=O)O)NC(=O)CNC1=O [compound 6] (H-G[S5]GKF[S5]HNKKKFGKA[S5]VGE[S5]AKK-NH2; staple 2-6, 16-20)	4	4	>64			8	>64	> 200	> 200
CC(C)[C@@H]1NC(=O)[C@@](C)(NC(=O)[C@H](C)NC(=O)[C@H](CCCCN)NC(=O)CNC(=O)[C@H](Cc2ccccc2)NC(=O)[C@H](CCCCN)NC(=O)[C@H](CCCCN)NC(=O)[C@H](CCCCN)NC(=O)[C@H](CO)NC(=O)[C@H](Cc2c[nH]cn2)NC(=O)[C@]2(C)CCCC=CCCC[C@](C)(NC(=O)[C@@H](N)Cc3c[nH]c4ccccc34)C(=O)NCC(=O)N[C@@H](CCCCN)C(=O)N[C@@H](Cc3ccccc3)C(=O)N2)CCCC=CCCC[C@@](C)(C(=O)N[C@@H](C)C(=O)N[C@@H](CCCCN)C(=O)N[C@@H](CCCCN)C(N)=O)NC(=O)[C@H](CCC(=O)O)NC(=O)CNC1=O [compound 56] (H-W[S5]GKF[S5]HSKKKFGKA[S5]VGE[S5]AKK-NH2; staple 2-6, 16-20)	8	4	>64			16	>64	78 (≈ 29.3 µM)	200 (≈ 75.2 µM)
